Measured values published in patent publication US20240398768A1, “METHODS OF TREATING SOLID TUMOR USING HETEROAROMATIC MACROCYCLIC ETHER COMPOUNDS” (Nuvalent, Inc., priority 2021, published 2024).
Marks after values point to notes of the source that are not given here.

Experiments:
[1] = test system: advanced ROS1-positive NSCLC and other advanced ROS1-positive solid tumors; assay: Phase 1/2 clinical study: antitumor activity; type: in vivo, human; details: for tumor change by RECIST 1.1: patient
CYP1A2 [2] = target: T1, CYP1A2 (Homo sapiens, UniProt P05177); assay: CYP inhibition; type: in vitro ADME
T1 sequence (P05177 1-516): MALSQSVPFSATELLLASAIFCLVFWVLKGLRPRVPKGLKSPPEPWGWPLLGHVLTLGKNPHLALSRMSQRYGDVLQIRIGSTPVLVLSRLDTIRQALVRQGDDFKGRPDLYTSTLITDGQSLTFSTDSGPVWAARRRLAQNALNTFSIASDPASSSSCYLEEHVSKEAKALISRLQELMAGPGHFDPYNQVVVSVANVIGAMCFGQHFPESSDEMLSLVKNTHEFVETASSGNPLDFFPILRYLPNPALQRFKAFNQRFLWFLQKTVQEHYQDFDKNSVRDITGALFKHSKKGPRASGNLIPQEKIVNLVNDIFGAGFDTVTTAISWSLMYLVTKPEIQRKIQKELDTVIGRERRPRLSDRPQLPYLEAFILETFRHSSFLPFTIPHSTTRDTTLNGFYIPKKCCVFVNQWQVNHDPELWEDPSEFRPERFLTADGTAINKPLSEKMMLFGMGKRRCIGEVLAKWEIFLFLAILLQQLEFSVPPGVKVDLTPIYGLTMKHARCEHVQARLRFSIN

CYP1A2 [3] = target: T1, CYP1A2; assay: CYP substrate assessment; type: in vitro ADME
CYP2B6 = target: T2, CYP2B6 (Homo sapiens, UniProt P20813); assay: CYP substrate assessment; type: in vitro ADME
T2 sequence (P20813 1-491): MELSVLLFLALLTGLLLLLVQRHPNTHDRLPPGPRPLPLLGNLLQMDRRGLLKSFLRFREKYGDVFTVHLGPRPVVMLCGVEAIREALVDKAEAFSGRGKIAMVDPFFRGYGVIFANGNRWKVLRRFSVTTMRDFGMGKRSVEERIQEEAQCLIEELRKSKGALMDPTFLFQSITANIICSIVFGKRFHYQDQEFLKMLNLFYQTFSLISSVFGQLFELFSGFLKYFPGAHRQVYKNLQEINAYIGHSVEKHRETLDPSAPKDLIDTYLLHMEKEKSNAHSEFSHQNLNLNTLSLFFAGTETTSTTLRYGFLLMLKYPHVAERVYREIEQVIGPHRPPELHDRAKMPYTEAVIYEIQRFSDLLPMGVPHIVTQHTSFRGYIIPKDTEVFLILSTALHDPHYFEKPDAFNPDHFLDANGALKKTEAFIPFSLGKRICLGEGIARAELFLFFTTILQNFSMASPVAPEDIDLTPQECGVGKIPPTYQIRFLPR

CYP2C8 = target: T3, CYP2C8 (Homo sapiens, UniProt P10632); assay: CYP inhibition; type: in vitro ADME
T3 sequence (P10632 1-490): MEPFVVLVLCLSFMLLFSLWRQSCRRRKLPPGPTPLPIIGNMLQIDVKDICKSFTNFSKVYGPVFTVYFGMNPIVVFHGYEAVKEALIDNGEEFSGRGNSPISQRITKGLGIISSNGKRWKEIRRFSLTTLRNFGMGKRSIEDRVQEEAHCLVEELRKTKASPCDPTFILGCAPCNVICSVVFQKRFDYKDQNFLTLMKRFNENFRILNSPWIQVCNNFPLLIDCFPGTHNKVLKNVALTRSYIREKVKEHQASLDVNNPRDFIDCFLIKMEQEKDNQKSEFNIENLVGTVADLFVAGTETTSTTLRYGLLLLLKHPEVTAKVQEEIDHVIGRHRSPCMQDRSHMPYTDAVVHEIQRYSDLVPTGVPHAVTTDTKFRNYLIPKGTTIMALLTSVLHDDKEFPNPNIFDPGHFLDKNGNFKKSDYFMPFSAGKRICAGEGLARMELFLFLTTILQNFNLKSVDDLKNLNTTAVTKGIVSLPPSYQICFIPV

CYP2D6 = CYP2D6 (Homo sapiens, UniProt P10635); assay: CYP inhibition; type: in vitro ADME
[4] = Prior Lorlatinib and/or Repotrectinib n = 18
[5] = ROS1 G2032R Resistance Mutation n = 9
[6] = ≥2 Prior ROS1 TKI and ≥1 Chemotherapy n = 17

Sequence of CYP2D6 (P10635 whole entry): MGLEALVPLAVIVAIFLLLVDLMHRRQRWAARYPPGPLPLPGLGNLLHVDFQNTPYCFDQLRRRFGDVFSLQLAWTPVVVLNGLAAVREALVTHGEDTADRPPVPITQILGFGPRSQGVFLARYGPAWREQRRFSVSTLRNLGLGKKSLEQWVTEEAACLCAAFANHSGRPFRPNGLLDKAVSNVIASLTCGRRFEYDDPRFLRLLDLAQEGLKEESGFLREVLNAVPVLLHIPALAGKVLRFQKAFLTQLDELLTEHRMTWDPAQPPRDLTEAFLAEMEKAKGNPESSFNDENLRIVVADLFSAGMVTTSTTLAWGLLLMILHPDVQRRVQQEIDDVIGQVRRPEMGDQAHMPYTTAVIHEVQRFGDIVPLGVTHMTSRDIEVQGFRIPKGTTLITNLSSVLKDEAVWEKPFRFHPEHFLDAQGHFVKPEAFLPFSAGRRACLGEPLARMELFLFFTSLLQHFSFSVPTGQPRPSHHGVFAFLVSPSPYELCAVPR

Structure (SMILES): CCn1ncc2c1-c1cnc(N)c(c1)O[C@H](C)c1cc(F)ccc1-c1nn(C)nc1C2 [Compound 1, (19R)-3-ethyl-16-fluoro-10,19-dimethyl-20-oxa-3,4,9,10,11,23-hexaazapentacyclo [19.3.1.0^2,^6.0^8,^12.0^13,^18]pentacosa-1 (24),2 (6),4,8,11,13,15,17,21 (25),22-decaen-22-amine]
- Best Response NE, patients ([1]; All Response-Evaluable n = 21): 19^c
- Best Response PD, patients ([1]; All Response-Evaluable n = 21): 2
- Best Response PR, patients ([1]; All Response-Evaluable n = 21): 10^a
- Best Response SD, patients ([1]; All Response-Evaluable n = 21): 8
- ORR (RESIST 1.1) ([1]; All Response-Evaluable n = 21): 48%
- ORR (RESIST 1.1), number of patients ([1]; All Response-Evaluable n = 21): 10
- Best Response NE, patients ([1]; CNS Disease at Baseline n = 11): 0
- Best Response PD, patients ([1]; CNS Disease at Baseline n = 11): 1
- Best Response PR, patients ([1]; CNS Disease at Baseline n = 11): 8a
- Best Response SD, patients ([1]; CNS Disease at Baseline n = 11): 2
- ORR (RESIST 1.1) ([1]; CNS Disease at Baseline n = 11): 73%
- ORR (RESIST 1.1), number of patients ([1]; CNS Disease at Baseline n = 11): 8
- tumor change (further disease regression) ([1]; EZR-ROS1 G2032R patient, 50 mg, at 16 weeks): −58%
- Best Response NE, patients [1, 4]: 1c
- Best Response PD, patients [1, 4]: 1
- Best Response PR, patients [1, 4]: 9a
- Best Response SD, patients [1, 4]: 7
- ORR (RESIST 1.1) [1, 4]: 50%
- ORR (RESIST 1.1), number of patients [1, 4]: 9
- Best Response NE, patients [1, 5]: 0
- Best Response PD, patients [1, 5]: 0
- Best Response PR, patients [1, 5]: 7^b
- Best Response SD, patients [1, 5]: 2
- ORR (RESIST 1.1) [1, 5]: 78%
- ORR (RESIST 1.1), number of patients [1, 5]: 7
- confirmed partial responses (PR) ([1]; among 12 efficacy-evaluable patients with ROS1+ NSCLC, 25-75 mg QD): 6
- median time to response ([1]; data as of Sep. 13, 2022): about 3.6 weeks
- response-evaluable patients continuing treatment ([1]; data as of Sep. 13, 2022): 76%
- tumor change, ongoing PR pending confirmation ([1]; one patient with ROS1 D2033N): −40%
- patients with tumor shrinkage ([1]; patient subgroup with known ROS1 G2032R resistance mutation): 100%
- ORR ([1]; patient subgroup with known ROS1 G2032R resistance mutation, data as of Sep. 13, 2022): 78%
- tumor change by RECIST 1.1 ([1]; CD74-ROS1 G2032R, 25 mg daily, after 4 weeks): −31%
- tumor change by RECIST 1.1 ([1]; CD74-ROS1 G2032R, escalated to 75 mg daily, over 5 months, confirmed PR): −60%
- tumor change by RECIST 1.1 ([1]; EZR-ROS1, 25 mg daily, over 7 months): −48%
- tumor change by RECIST 1.1 ([1]; EZR-ROS1, no ROS1 resistance mutations, 25 mg daily, week 4): −33%
- tumor change by RECIST 1.1 ([1]; EZR-ROS1 G2032R, 50 mg daily, approximately 5 months, confirmed PR): −58%
- tumor change by RECIST 1.1 ([1]; EZR-ROS1 G2032R, 50 mg daily, week 4): −38%
- intracranial PR (patients) ([1]; patients with measurable (>10 mm) CNS metastases): 3/3
- median duration of treatment ([1]; response-evaluable patients with NSCLC, data as of Sep. 13, 2022): about 3.6 months
- ORR ([1]; response-evaluable patients with any CNS disease, data as of Sep. 13, 2022): 73%
- Best Response NE, patients [1, 6]: 1c
- Best Response PD, patients [1, 6]: 1
- Best Response PR, patients [1, 6]: 9a
- Best Response SD, patients [1, 6]: 6
- ORR (RESIST 1.1) [1, 6]: 53%
- ORR (RESIST 1.1), number of patients [1, 6]: 9
- IC50 (CYP1A2 [2]): > 100 µM
- metabolism contribution from CYP1A2 (CYP1A2 [3]): potential for contributions
- substrate for CYP2B6 (CYP2B6): not considered a substrate
- IC50 (CYP2C8): 70 µM
- IC50 (CYP2D6): > 100 µM
